Assay results: ChEMBL document CHEMBL2021891, “STAT-3 inhibitory bisabolanes from Carthamus glaucus” (J Nat Prod, 2012)

Columns and labels:
[1] = Inhibition of TNFalpha-induced NF-kappaB activation in human HIV-1-LTR-luc 5.1 cells treated 30 mins before TNFalpha challenge measured after 6 hrs
[2] = biological target: Signal transducer and activator of transcription 3 (Homo sapiens, UniProt P40763); experiment: Inhibition of IFNgamma-induced STAT3 activation in human HeLa cells expressing p4xM67-tk-Luc treated 30 mins before […] challenge measured after 6 hrs; type: cell-based
Signal transducer and activator of transcription 3, sequence (P40763 whole entry): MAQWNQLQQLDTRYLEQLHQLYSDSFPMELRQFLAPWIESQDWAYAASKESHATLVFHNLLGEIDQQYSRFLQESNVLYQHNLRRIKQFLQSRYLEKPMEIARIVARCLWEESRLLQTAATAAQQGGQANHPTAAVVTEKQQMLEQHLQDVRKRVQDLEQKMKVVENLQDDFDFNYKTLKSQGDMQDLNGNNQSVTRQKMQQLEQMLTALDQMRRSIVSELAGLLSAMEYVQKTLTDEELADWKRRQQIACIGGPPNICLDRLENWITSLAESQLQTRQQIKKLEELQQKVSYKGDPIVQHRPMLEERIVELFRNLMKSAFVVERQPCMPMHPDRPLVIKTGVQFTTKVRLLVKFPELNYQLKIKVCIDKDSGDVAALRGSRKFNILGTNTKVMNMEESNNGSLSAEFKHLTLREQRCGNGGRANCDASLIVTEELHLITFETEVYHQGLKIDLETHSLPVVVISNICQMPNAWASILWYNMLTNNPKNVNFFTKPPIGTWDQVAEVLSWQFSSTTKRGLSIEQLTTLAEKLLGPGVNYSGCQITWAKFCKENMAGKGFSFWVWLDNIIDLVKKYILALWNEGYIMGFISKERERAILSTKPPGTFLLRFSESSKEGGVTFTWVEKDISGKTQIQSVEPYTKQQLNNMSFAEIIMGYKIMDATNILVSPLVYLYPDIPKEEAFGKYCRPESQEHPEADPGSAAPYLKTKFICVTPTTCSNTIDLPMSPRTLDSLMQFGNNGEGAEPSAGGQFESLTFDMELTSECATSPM

IC50 [1] | IC50 [2] | SMILES
110 µM | 6.3 µM | CC(C)=CCC[C@](C)(O[C@@H]1O[C@H](C)[C@H](O)[C@H](O)[C@H]1O)[C@@H]1CC=C(C)CC1 (relative stereo)
60 µM | 110 µM | CC(C)=CCC[C@](C)(O[C@@H]1O[C@H](C)[C@H](O)[C@H](OC(=O)C=C(C)C)[C@H]1O)[C@@H]1CC=C(C)CC1 (relative stereo)
> 220 µM | 73 µM | CC(C)=CCC[C@](C)(O)[C@@H]1CC=C(C)CC1 (relative stereo) [LEVOMENOL]
